Source: patent publication US8598211B2, “Carboxamide compounds and their use as calpain inhibitors IV” (AbbVie Inc., priority 2009, dated 2013)

What was measured:
Type in all cases: biochemical
[1] = biological target: T1, calpain-I (Homo sapiens, UniProt P07384); assay: Calpain I kinetic fluorescence enzyme inhibition assay; settings: calpain-I from human erythrocytes, Suc-Leu-Tyr-AMC, pH 7.3; apparent Ki from IC50 by Cheng-Prussoff
T1 construct: calpain-I—isolated from human erythrocytes; purchased Calbiochem 208713; host or cells: human erythrocytes (natural source)
T1 sequence (P07384 1-714): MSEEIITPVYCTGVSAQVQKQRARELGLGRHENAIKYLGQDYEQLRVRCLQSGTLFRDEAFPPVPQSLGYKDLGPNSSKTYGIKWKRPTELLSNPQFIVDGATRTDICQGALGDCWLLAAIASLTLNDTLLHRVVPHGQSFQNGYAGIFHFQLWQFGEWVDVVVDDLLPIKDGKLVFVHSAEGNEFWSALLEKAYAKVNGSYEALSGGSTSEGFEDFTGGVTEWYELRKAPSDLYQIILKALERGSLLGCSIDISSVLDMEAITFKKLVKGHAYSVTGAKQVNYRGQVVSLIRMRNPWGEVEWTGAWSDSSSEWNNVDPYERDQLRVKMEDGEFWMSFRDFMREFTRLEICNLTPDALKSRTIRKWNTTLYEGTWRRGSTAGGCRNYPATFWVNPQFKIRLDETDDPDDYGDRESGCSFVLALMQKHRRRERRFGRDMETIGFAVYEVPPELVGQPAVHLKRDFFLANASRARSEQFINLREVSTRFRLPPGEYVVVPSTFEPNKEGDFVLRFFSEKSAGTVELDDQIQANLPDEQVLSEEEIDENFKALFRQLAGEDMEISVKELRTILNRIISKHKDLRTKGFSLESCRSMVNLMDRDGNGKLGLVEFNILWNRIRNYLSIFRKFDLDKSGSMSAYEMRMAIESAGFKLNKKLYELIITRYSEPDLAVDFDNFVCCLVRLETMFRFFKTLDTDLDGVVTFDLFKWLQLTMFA
T1 sequence (P04632 1-268 partner): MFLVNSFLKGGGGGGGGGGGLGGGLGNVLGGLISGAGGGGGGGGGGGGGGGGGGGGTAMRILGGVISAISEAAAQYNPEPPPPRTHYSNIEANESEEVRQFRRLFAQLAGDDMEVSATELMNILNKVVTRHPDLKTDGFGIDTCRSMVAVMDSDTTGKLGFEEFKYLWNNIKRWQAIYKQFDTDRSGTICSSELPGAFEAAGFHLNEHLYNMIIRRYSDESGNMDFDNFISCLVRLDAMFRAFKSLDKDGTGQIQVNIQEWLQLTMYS
Method: Testing for blockade of the corresponding enzymic activities was carried out by means of kinetic fluorescence assays (excitation 390 nm, emission 460 nm).
Apparent Ki values were calculated from the experimentally determined IC50 values by the Cheng-Prussoff relation assuming a reversible competitive enzyme inhibition.
20 nM calpain-I—isolated from human erythrocytes (Calbiochem #208713), 100 μM Suc-Leu-Tyr-AMC (Bachem #I-1355) as substrate in buffer with 62 mM imidazole, 0.3 mM CaCl2, 0.10% CHAPS, 0.05% BSA, 1 mM DTT at pH 7.3 and room temperature.

[2] = biological target: T2, cathepsin K (Homo sapiens, UniProt P43235); assay: Cathepsin K kinetic fluorescence enzyme inhibition assay; settings: selectivity ratio versus calpain
T2 construct: purchased Calbiochem 342001; host or cells: E. coli
T2 sequence (P43235 115-329): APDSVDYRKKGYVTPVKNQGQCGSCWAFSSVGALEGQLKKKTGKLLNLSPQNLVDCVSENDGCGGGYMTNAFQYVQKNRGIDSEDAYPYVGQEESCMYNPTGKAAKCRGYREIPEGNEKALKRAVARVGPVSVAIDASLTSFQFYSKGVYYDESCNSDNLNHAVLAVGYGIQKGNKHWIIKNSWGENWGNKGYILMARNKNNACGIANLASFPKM
Method: 3 nM cathepsin K—activated from recombinant human procathepsin K from E. coli (Calbiochem #342001), 10 μM Z-Gly-Pro-Arg-AMC (Biomol #P-142) as substrate in 50 mM MES, 2 mM EDTA, 0.05% Brij 35, 2.5 mM L-cysteine, pH 6.0, room temperature.

[3] = biological target: T3, cathepsin S (Homo sapiens, UniProt P25774); assay: Cathepsin S kinetic fluorescence enzyme inhibition assay; settings: selectivity ratio versus calpain
T3 construct: purchased Calbiochem 219343; host or cells: E. coli
Method: 0.5 nM recombinant human cathepsin S from E. coli (Calbiochem #219343), 20 μM Z-Val-Val-Arg-AMC (Bachem #I-1540) as substrate in 50 mM MES, 2 mM EDTA, 0.05% Brij 35, 2.5 mM L-cysteine, pH 6.0, room temperature.

[4] = biological target: T4, cathepsin B (Homo sapiens, UniProt P07858); assay: Cathepsin B kinetic fluorescence enzyme inhibition assay; settings: selectivity ratio versus calpain
T4 construct: cathepsin B—isolated from human liver; purchased Calbiochem 219362; host or cells: human liver (natural source)
Method: 0.25 nM cathepsin B—isolated from human liver (Calbiochem #219362), 100 μM Z-Phe-Arg-AMC (Bachem #I-1160) as substrate 50 mM MES, 2 mM EDTA, 0.05% Brij 35, 2.5 mM L-cysteine, pH 6.0, room temperature.

[5] = biological target: T5, cathepsin L (Homo sapiens, UniProt P07711); assay: Cathepsin L kinetic fluorescence enzyme inhibition assay; settings: selectivity ratio versus calpain
T5 construct: cathepsin L—isolated from human liver; purchased Calbiochem 219402; host or cells: human liver (natural source)
T5 sequence (P07711 114-333): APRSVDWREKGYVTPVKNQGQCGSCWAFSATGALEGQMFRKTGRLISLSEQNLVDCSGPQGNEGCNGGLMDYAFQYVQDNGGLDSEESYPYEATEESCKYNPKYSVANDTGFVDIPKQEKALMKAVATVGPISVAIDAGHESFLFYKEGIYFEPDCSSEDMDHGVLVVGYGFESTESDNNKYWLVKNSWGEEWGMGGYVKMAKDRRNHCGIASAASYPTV
Method: 1 nM cathepsin L—isolated from human liver (Calbiochem #219402), 2 μM Z-Phe-Arg-AMC (Bachem #I-1160) as substrate in 50 mM MES, 2 mM EDTA, 0.05% Brij 35, 2.5 mM L-cysteine, pH 6.0, room temperature.

T3 sequence (P25774 115-331): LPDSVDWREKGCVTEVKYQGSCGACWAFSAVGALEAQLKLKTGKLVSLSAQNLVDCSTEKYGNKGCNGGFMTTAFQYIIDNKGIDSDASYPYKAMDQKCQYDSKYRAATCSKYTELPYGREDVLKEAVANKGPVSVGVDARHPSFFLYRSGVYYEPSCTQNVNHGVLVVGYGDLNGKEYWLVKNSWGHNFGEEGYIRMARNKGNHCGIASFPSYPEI

SMILES	Ki [1] [nM]	Sel cat. K (Ki(cathepsin K)/Ki(calpain) ratio) [2]	Sel cat. S (Ki(cathepsin S)/Ki(calpain) ratio) [3]	Sel cat. B (Ki(cathepsin B)/Ki(calpain) ratio) [4]	Sel cat. L (Ki(cathepsin L)/Ki(calpain) ratio) [5]
COc1ccc(CC(NC(=O)c2cccnc2-n2ccc(-c3ccccc3)n2)C(=O)C(=O)NC2CC2)cc1 (stereo not shown) [Example 22, N-[4-(Cyclopropylamino)-1-(4-methoxyphenyl)-3,4-dioxo-2-butanyl]-2-(3-phenyl-1H-pyrazol-1-yl)nicotinamide]	250 to 400	++ (9<Ki(cathepsin K)/Ki(calpain)≦30)	++ (10<Ki(cathepsin S)/Ki(calpain)≦50)	++ (9<Ki(cathepsin B)/Ki(calpain)≦30)	++ (10<Ki(cathepsin L)/Ki(calpain)≦50)
O=C(NC1CC1)C(=O)C(Cc1ccccc1)NC(=O)[C@H]1CCC(=O)N1Cc1ccccc1F (mixture of isomers) [Example 30, (2R)—N-(4-(cyclopropylamino)-3,4-dioxo-1-phenylbutan-2-yl)-1-(2-fluorobenzyl)-5-oxopyrrolidine-2-carboxamide]	400 to 800	+++ (Ki(cathepsin K)/Ki(calpain) ratio of >30)	+++ (Ki(cathepsin S)/Ki(calpain) ratio of >50)	++ (9<Ki(cathepsin B)/Ki(calpain)≦30)	++ (10<Ki(cathepsin L)/Ki(calpain)≦50)
O=C(NCCc1ccccn1)C(=O)C(Cc1ccccc1)NC(=O)c1cccnc1-n1ccc(-c2ccc(F)cc2)n1 (stereo not shown) [Example 3, N-(3,4-Dioxo-1-phenyl-4-{[2-(pyridin-2-yl)ethyl]amino}butan-2-yl)-2-[3-(4-fluorophenyl)-1H-pyrazol-1-yl]pyridine-3-carboxamide]	250 to 400	++ (9<Ki(cathepsin K)/Ki(calpain)≦30)	++ (10<Ki(cathepsin S)/Ki(calpain)≦50)	++ (9<Ki(cathepsin B)/Ki(calpain)≦30)	++ (10<Ki(cathepsin L)/Ki(calpain)≦50)
O=C(NCc1nc2ccccc2[nH]1)C(=O)C(Cc1ccccc1)NC(=O)c1cccnc1-n1ccc(-c2ccccc2)n1 (stereo not shown) [Example 20, N-{4-[(1H-Benzimidazol-2-ylmethyl)amino]-3,4-dioxo-1-phenyl-2-butanyl}-2-(3-phenyl-1H-pyrazol-1-yl)nicotinamide]	800 to 1000	++ (9<Ki(cathepsin K)/Ki(calpain)≦30)	++ (10<Ki(cathepsin S)/Ki(calpain)≦50)	++ (9<Ki(cathepsin B)/Ki(calpain)≦30)	++ (10<Ki(cathepsin L)/Ki(calpain)≦50)
O=C(NCCc1ccccc1)C(=O)C(Cc1ccccc1)NC(=O)c1cccnc1-n1ccc(-c2ccc(F)cc2)n1 (stereo not shown) [Example 1, N-{3,4-Dioxo-1-phenyl-4-[(2-phenylethyl)amino]butan-2-yl}-2-[3-(4-fluorophenyl)-1H-pyrazol-1-yl]pyridine-3-carboxamide]	250 to 400	++ (9<Ki(cathepsin K)/Ki(calpain)≦30)	++ (10<Ki(cathepsin S)/Ki(calpain)≦50)	++ (9<Ki(cathepsin B)/Ki(calpain)≦30)	++ (10<Ki(cathepsin L)/Ki(calpain)≦50)
